Values quoted from earlier work in patent US20230310317A1, “SOL-GEL COMPOSITION” (THE UNIVERSITY OF QUEENSLAND, priority 2020, published 2023).

Settings: aqueous media e.g. gel-based systems

Solubility in aqueous media: practically insoluble
Compound: C[C@@H]1C[C@H]2[C@@H]3CCC4=CC(=O)C=C[C@]4(C)[C@@]3(Cl)[C@@H](O)C[C@]2(C)[C@@]1(OC(=O)c1ccco1)C(=O)CCl [MF, mometasone furoate]
